Source: publication PMC9967700, “Metabolism-Guided Optimization of Tryptophanol-Derived Isoindolinone p53 Activators” (Pharmaceuticals, 2023)
Where two headings read alike, the source gives them in different places.

Assays:
HCT116 p53−/− cells = experiment: Antiproliferative activity, sulforhodamine B (SRB) assay; type: cell-based, human; conditions: 48 h treatment, mean ± SEM of 3–5 independent experiments, read-out: HCT116 p53−/− GI50
Procedure: Tumor cells were cultured in RPMI-1640 with UltraGlutamine (Lonza, VWR), supplemented with 10% fetal bovine serum (FBS; Gibco, Alfagene) and maintained in a humidified incubator at 37 °C with 5% CO2. Cell lines were seeded in 96-well plates at the cells/well density of 5.0 × 10^3.

[1] = In vitro reactions with bionucleophiles; conditions: with or without enzymatic conditions (S9 rat liver incubations)
Procedure: To a solution of compound 13d in acetonitrile (1.00 eq., 10.1 mg in 400 µL, 5.04 × 10^−2 M) reduced glutathione (4.00 eq. 25.2 mg, 82.00 µmol) dissolved in 400 µL of ABIC buffer 50 mM pH 7.4 was added. The reaction mixture was incubated for 24 h at 37 °C and monitored by LC-ESI-HRMS/MS.
To a solution of compound 13k in acetonitrile (1.00 eq., 4.3 mg in 200 µL, 3.92 × 10^−2 M) reduced glutathione (4.00 eq. 9.64 mg, 31.36 µmol) dissolved in 200 µL of ABIC buffer 50 mM pH 7.4 was added. The reaction mixture was incubated for 24 h at 37 °C and monitored by LC-ESI-HRMS/MS.
SLMP53-1_M5 (1.00 eq., 2.1 mg, dissolved in 150 µL of ACN) was added to a L-lysine (2 eq.) solution in 50 mM ABIC buffer pH 7.4. Following incubation for 24 h at 37 °C a solution of cyanoborohydride (2 eq) was added. The mixture was analyzed by LC-ESI(+)-HRMS/MS.

GI50 (HCT116 p53−/− cells): 7.45 ± 0.95 µM
GI50 (HCT116 p53−/− cells; Homo sapiens, HCT-116, 48 h): 7.5 µM
Compound: CCCn1c(Br)c(C[C@H]2CO[C@]3(c4ccccc4)c4ccccc4C(=O)N23)c2ccccc21 [Compound 13d, (3S, 9bR)-3-((2-bromo-1-propyl-1H-indol-3-yl)methyl)-9b-phenyl-2,3-dihydrooxazolo[2,3-a]isoindol-5(9bH)-one]
products of addition of GSH with concomitant loss of bromine [1]: no products compatible with the addition of GSH, and the concomitant loss of bromine, were detected
